In patent publication US20230203060A1 (GENFLEET THERAPEUTICS (SHANGHAI) INC., priority 2020, published 2023):

What was measured:
[1] = test system: A549 cells (KRAS G12S mutant); assay: Cell proliferation inhibition experiment, 3D spheroid, CellTiter-Glo, A549; format: cell-based, human; settings: Homo sapiens, A549, 120 h, A549 (KRAS G12S mutant) 3D spheroid, 5 days with compound, CellTiter-Glo; read-out: A549 IC50
In short: (§1)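 Cells seeded in 2% FBS medium in spheroid plates (800 H358 or 400 A549 per well), grown overnight to form 3D spheroids, then exposed to 3.16-fold compound dilutions (0.1% DMSO) for 5 days. CellTiter-Glo luminescence gave inhibition vs DMSO and medium blanks; IC50 by four-parameter fit.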

[2] = test system: KRAS G12C mutant NCI-H358 cells; assay: Cell proliferation inhibition experiment, 3D spheroid, CellTiter-Glo, NCI-H358; format: cell-based, human; settings: Homo sapiens, NCI-H358, 120 h, NCI-H358 (KRAS G12C mutant) 3D spheroid, 5 days with compound, CellTiter-Glo; read-out: H358 IC50
In short: as §1

SMILES | IC50 [1] [nM] | IC50 [2] [nM]
C=CC(=O)N1CCN2C(=O)c3c(N4CC[C@H](OC)[C@@H]4C)nc(-c4c(O)cccc4F)c(Cl)c3OC[C@H]2C1 [Z347-1, (6aR)-8-acryloyl-4-chloro-3-(2-fluoro-6-hydroxyphenyl)-1-((2S,3S)-3-methoxy-2-methylpyrrolidin-1-yl)-6,6a,7,8,9,10-hexahydro-12H-pyrazino[2,1-c]pyrido[3,4-f][1,4]oxazepin-12-one] | 9550 | 2.1
C=CC(=O)N1CCN2C(=O)c3c(N4CC(C)(C)OC[C@@H]4C)nc(-c4c(O)cccc4F)c(Cl)c3OC[C@H]2C1 [Z276-1, (6aR)-8-acryloyl-4-chloro-3-(2-fluoro-6-hydroxyphenyl)-1-((S)-2,2,5-trimethylmorpholino)-6,6a,7,8,9,10-hexahydro-12H-pyrazino[2,1-c]pyrido[3,4-f][1,4]oxazepin-12-one] | > 30000 | 7.6
C=CC(=O)N1CCN2C(=O)c3c(N4CCN(C(C)=O)C(C)(C)C4)nc(-c4c(O)cccc4F)c(Cl)c3OC[C@H]2C1 [Z315, (6aR)-1-(4-acetyl-3,3-dimethylpiperazin-1-yl)-8-acryloyl-4-chloro-3-(2-fluoro-6-hydroxyphenyl)-6,6a,7,8,9,10-hexahydro-12H-pyrazino[2,1-c]pyrido[3,4-f][1,4]oxazepin-12-one] | > 30000 | 5
C=CC(=O)N1CCN2C(=O)c3c(N4CCCC4(C)C)nc(-c4c(O)cccc4F)c(Cl)c3OC[C@H]2C1 [Z22, (6aR)-8-acryloyl-4-chloro-1-(2,2-dimethylpyrrolidin-1-yl)-3-(2-fluoro-6-hydroxyphenyl)-6,6a,7,8,9,10-hexahydro-12H-pyrazino[2,1-c]pyrido[3,4-f][1,4]oxazepin-12-one] | > 30000 | 2
C=CC(=O)N1CCN2C(=O)c3c(N4C[C@@H](O)CC4(C)C)nc(-c4c(F)ccc(Cl)c4O)c(F)c3OC[C@H]2C1 (single isomer, unassigned) [Z341-1] | 11100 | 8
C=CC(=O)N1CCN2C(=O)c3c(N4C[C@@H](CO)CC4(C)C)nc(-c4c(O)cccc4F)c(Cl)c3OC[C@H]2C1 (single isomer, unassigned) [Z240-1] | 10000 | 2.5
C=CC(=O)N1CCN2C(=O)c3c(N4Cc5nn(C)cc5[C@@H]4C)nc(-c4c(O)cccc4F)c(Cl)c3OC[C@H]2C1 (single isomer, unassigned) [Z345-2] | 9400 | 11.8
C=CC(=O)N1CCN2C(=O)c3c(N4C[C@H](OC)C[C@@H]4C)nc(-c4c(O)cccc4F)c(Cl)c3OC[C@H]2C1 [Z259a, (6aR)-8-acryloyl-4-chloro-3-(2-fluoro-6-hydroxyphenyl)-1-((2S,4R)-4-methoxy-2-methylpyrrolidin-1-yl)-6,6a,7,8,9,10-hexahydro-12H-pyrazino[2,1-c]pyrido[3,4-f][1,4]oxazepin-12-one] | 9120 | 3
C=CC(=O)N1CCN2C(=O)c3c(N4C[C@@H](OC)CC4(C)C)nc(-c4c(O)cccc4F)c(Cl)c3OC[C@H]2C1 (single isomer, unassigned) [Z244-1] | 2900 | 1.9
C=CC(=O)N1CCN2C(=O)c3c(N4CCN(C)[C@H](C)[C@@H]4C)nc(-c4c(O)cccc4F)c(Cl)c3OC[C@H]2C1 (single isomer, unassigned) [Z308a-1] | 14400 | 7.1
C=CC(=O)N1CCN2C(=O)c3c(N4C[C@@H](N5CCOCC5)CC4(C)C)nc(-c4c(O)cccc4F)c(Cl)c3OC[C@H]2C1 (single isomer, unassigned) [Z297-2] | 8700 | 1
C=CC(=O)N1CCN2C(=O)c3c(N4CCC(OC)C4(C)C)nc(-c4c(O)cccc4F)c(Cl)c3OC[C@H]2C1 (stereo partly drawn) [Z241a, (6aR)-8-acryloyl-4-chloro-3-(2-fluoro-6-hydroxyphenyl)-1-(3-methoxy-2,2-dimethylpyrrolidin-1-yl)-6,6a,7,8,9,10-hexahydro-12H-pyrazino[2,1-c]pyrido[3,4-f][1,4]oxazepin-12-one] | 4940 | 1.1
C=CC(=O)N1CCN2C(=O)c3c(N4C[C@@H](N(C)C)C[C@@H]4C)nc(-c4c(O)cccc4F)c(Cl)c3OC[C@H]2C1 [Z237-2, (6aR)-8-acryloyl-4-chloro-1-((2S,4S)-4-(dimethylamino)-2-methylpyrrolidin-1-yl)-3-(2-fluoro-6-hydroxyphenyl)-6,6a,7,8,9,10-hexahydro-12H-pyrazino[2,1-c]pyrido[3,4-f][1,4]oxazepin-12-one] | 5530 | 6
C=CC(=O)N1CCN2C(=O)c3c(N4CCN(S(C)(=O)=O)C[C@@H]4C)nc(-c4c(O)cccc4F)c(Cl)c3OC[C@H]2C1 [Z318-1, (6aR)-8-acryloyl-1-((S)-2-methyl-4-(methylsulfonyl)piperazin-1-yl)-4-chloro-3-(2-fluoro-6-hydroxyphenyl)-6,6a,7,8,9,10-hexahydro-12H-pyrazino[2,1-c]pyrido[3,4-f][1,4]oxazepin-12-one] | 26300 | 5.7
C=CC(=O)N1CCN2C(=O)c3c(N4C[C@@H](N(C)CCOC)C[C@@H]4C)nc(-c4c(O)cccc4F)c(Cl)c3OC[C@H]2C1 [Z358-1] | > 10000 | 4.8
C=CC(=O)N1CCN2C(=O)c3c(N4C[C@@H](OC)C[C@@H]4C)nc(-c4c(O)cccc4F)c(Cl)c3OC[C@H]2C1 [Z260a, (6aR)-8-acryloyl-4-chloro-3-(2-fluoro-6-hydroxyphenyl)-1-((2S,4S)-4-methoxy-2-methylpyrrolidin-1-yl)-6,6a,7,8,9,10-hexahydro-12H-pyrazino[2,1-c]pyrido[3,4-f][1,4]oxazepin-12-one] | > 30000 | 2.4
C=CC(=O)N1CCN2C(=O)c3c(N4CCN(C(=O)C5CC5)C[C@@H]4C)nc(-c4c(O)cccc4F)c(Cl)c3OC[C@H]2C1 [Z320-1, (6aR)-8-acryloyl-4-chloro-1-((S)-4-(cyclopropanecarbonyl)-2-methylpiperazin-1-yl)-3-(2-fluoro-6-hydroxyphenyl)-6,6a,7,8,9,10-hexahydro-12H-pyrazino[2,1-c]pyrido[3,4-f][1,4]oxazepin-12-one] | 8920 | 1.3
C=CC(=O)N1CCN2C(=O)c3c(N4C[C@H](N(C)CCOC)CC4(C)C)nc(-c4c(O)cccc4F)c(Cl)c3OC[C@H]2C1 (single isomer, unassigned) [Z296-2] | 3790 | 2.4
C=CC(=O)N1CCN2C(=O)c3c(N4CC[C@H](N(C)C)C4(C)C)nc(-c4c(O)cccc4F)c(Cl)c3OC[C@H]2C1 (single isomer, unassigned) [Z360-2] | > 10000 | 3
C=CC(=O)N1CCN2C(=O)c3c(N(C)c4c(C(C)C)ncnc4C(C)C)nc(-c4c(O)cccc4F)c(Cl)c3OC[C@H]2C1 [Z20, (6aR)-8-acryloyl-4-chloro-1-((4,6-diisopropylpyrimidin-5-yl)(methyl)amino)-3-(2-fluoro-6-hydroxyphenyl)-6,6a,7,8,9,10-hexahydro-12H-pyrazino[2,1-c]pyrido[3,4-f][1,4]oxazepin-12-one] | 9020 | 4
C=CC(=O)N1CCN2C(=O)c3c(N4CC[C@H](OC)C4(C)C)nc(-c4c(O)cccc4F)c(F)c3OC[C@H]2C1 (single isomer, unassigned) [Z327-2] | 9510 | 8.4
C=CC(=O)N1CCN2C(=O)c3c(N4C[C@H](N5CCOCC5)CC4(C)C)nc(-c4c(O)cccc4F)c(Cl)c3OC[C@H]2C1 (single isomer, unassigned) [Z297-1] | 7000 | 1
C=CC(=O)N1CCN2C(=O)c3c(N4CC[C@@H](OC)C4(C)C)nc(-c4c(O)cccc4F)c(F)c3OC[C@H]2C1 (single isomer, unassigned) [Z327-1] | 7930 | 4
C=CC(=O)N1CCN2C(=O)c3c(N4C[C@H](OC)CC4(C)C)nc(-c4c(O)cccc4F)c(Cl)c3OC[C@H]2C1 (single isomer, unassigned) [Z244-2] | 2080 | 0.5
C=CC(=O)N1CCN2C(=O)c3c(N4CCN(C(=O)CC)C[C@@H]4C)nc(-c4c(O)cccc4F)c(Cl)c3OC[C@H]2C1 [Z316-1, (6aR)-8-acryloyl-4-chloro-3-(2-fluoro-6-hydroxyphenyl)-1-((S)-2-methyl-4-propionylpiperazin-1-yl)-6,6a,7,8,9,10-hexahydro-12H-pyrazino[2,1-c]pyrido[3,4-f][1,4]oxazepin-12-one] | > 30000 | 1.3
C=CC(=O)N1CCN2C(=O)c3c(N4CC[C@@H](N(C)C)C4(C)C)nc(-c4c(O)cccc4F)c(Cl)c3OC[C@H]2C1 (single isomer, unassigned) [Z360-1] | 2530 | 11.8
C=CC(=O)N1CCN2C(=O)c3c(N4C[C@](C)(O)CC4(C)C)nc(-c4c(O)cccc4F)c(Cl)c3OC[C@H]2C1 (single isomer, unassigned) [Z243-2] | 3440 | 11.1
C=CC(=O)N1CCN2C(=O)c3c(N4C[C@@H](OC)C[C@@H]4C)nc(-c4c(O)cccc4F)c(F)c3OC[C@H]2C1 [Z359-1, (6aR)-8-actyloyl-4-fluoro-3-(2-fluoro-6-hydroxyphenyl)-1-((2S,4S)-4-methoxy-2-methylpyrrolidin-1-yl)-6,6a,7,8,9,10-hexahydro-12H-pyrazino[2,1-c]pyrido[3,4-f][1,4]oxazepin-12-one] | 12200 | 8.3
C=CC(=O)N1CCN2C(=O)c3c(N4C[C@@H](O)CC4(C)C)nc(-c4c(O)cccc4F)c(F)c3OC[C@H]2C1 (single isomer, unassigned) [Z256-1] | 12100 | 2.2
